The results in this text go back to patent publication US6900216B2, “Dihydroimidazo[2,1-b]thiazole and dihydro-5h-thiazolo[3,2-A]pyrimidines as antidepressant agents” (Knoll GmbH, priority 2000, dated 2005).

In the first experiment the target is T1, 5-HT1A receptors (Rattus norvegicus, UniProt P19327).
T1 construct: Hippocampal tissue from the brains of male Sprague-Dawley rats; from tissue; host or cells: rat hippocampal membranes
T1 sequence (P19327 1-422): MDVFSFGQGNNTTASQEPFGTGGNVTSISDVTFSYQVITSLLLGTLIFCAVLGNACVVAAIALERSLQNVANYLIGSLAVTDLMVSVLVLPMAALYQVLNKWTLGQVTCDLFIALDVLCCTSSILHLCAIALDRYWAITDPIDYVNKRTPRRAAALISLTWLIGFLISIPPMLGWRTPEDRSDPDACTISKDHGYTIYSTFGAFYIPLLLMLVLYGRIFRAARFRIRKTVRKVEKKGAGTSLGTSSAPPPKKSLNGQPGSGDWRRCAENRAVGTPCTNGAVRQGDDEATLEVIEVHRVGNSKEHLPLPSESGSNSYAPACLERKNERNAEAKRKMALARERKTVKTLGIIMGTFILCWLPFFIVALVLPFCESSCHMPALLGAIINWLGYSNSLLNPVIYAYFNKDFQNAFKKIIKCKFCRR
Briefly: 5-HT1A binding: inhibition of [3H]8-OH-DPAT binding to rat hippocampal membranes. The settings on record: 10^−6 M test compound, single determination, [3H]8-OH-DPAT; read-out: 5-HT1A % displacement at 10^−6 M. The procedure:
Hippocampal tissue from the brains of male Sprague-Dawley rats (Charles River; weight range 150-250 g) was homogenised in ice-cold 50 mM Tris-HCl buffer (pH 7.7 when measured at 25° C., 1:40 w/v) and centrifuged at 40,000 g at 4° C. for 10 minutes. The pellet was rehomogenised in the same buffer, incubated at 37° C. for 10 minutes and centrifuged at 40,000 g at 4° C. for 10 minutes. The final pellet was resuspended in 50 mM Tris-HCl buffer (pH 7.7) containing 4 mM CaCl2, 0.1% L-ascorbic acid and 10 μM pargyline hydrochloride (equivalent to 6.25 mg wet weight of tissue/ml) and used immediately in the binding assay.
Membranes (400 μl; equivalent to 2.5 mg wet weight of tissue/tube) were incubated with 50 μl of [^3H]8-hydroxy-2-(dipropylamino)tetralin ([^3H]8-OH-DPAT) at a single concentration of 1 nM and 50 μl of distilled water (total binding) or 50 μl of test compound (at a single concentration of 10^−6 M or at 10 concentrations ranging from 10^−11-10^−3 M) or 50 μl of 5-HT (10 μM, non-specific binding) at 25° C. for 30 minutes. The incubation was terminated by rapid filtration under vacuum through Skatron 11734 filters using a Skatron Cell Harvester. Filters were washed with ice-cold 50 mM Tris-HCl buffer, pH 7.7 (at 25° C., wash setting 9,9,0). The scored filter paper discs were punched out into vials, scintillation fluid added and radioactivity determined by liquid scintillation counting.
For each of these tests measuring the ability of compounds of Formula I to displace standard ligands from 5-HT1A receptors and 5-hydroxytryptamine (5-HT) and noradrenaline (NA) reuptake sites and muscarinic receptors in vitro, the percentage displacement of specific binding of tritiated ligand by 10^−6 M test compound was calculated in the following way.
Firstly, specific binding of tritiated ligand in the absence (A) and presence (B) of test compound was determined:
In the absence of compound: A(dpm)=Total binding (dpm)−Non-specific binding (dpm) In the presence of compound (10^−6 M): B(dpm)=Binding at 10^−6M (dpm)−Non-specific binding (dpm)
The specific binding of tritiated ligand in the presence (B) of compound was then converted to a percentage of specific binding of tritiated ligand in the absence (A) of compound: % Specific binding at 10^−6 M=B(dpm)/A(dpm)×100
The percentage displacement of specific binding of tritiated ligand by the test compound (10^−6 M) was then obtained by subtraction of the percentage specific binding in the presence of compound from the percentage specific binding in the absence of compound, which is taken as the maximum binding and so equals 100%:
% Displacement at 10^−6 M=100−% Specific binding at 10^−6 M.
In some cases, displacement curves were then produced for compounds which displaced ≧50% of specific binding of the tritiated ligand at 10^−6 M using a range of concentrations of the compound. The Ki was then calculated by simultaneous fitting using equations derived from the Feldman equations by robust non-linear regression to data from three experiments simultaneously (De Lean et al., 1978; Munson and Rodbard, 1980; Feldman, 1992). Munson P J and Rodbard D. Ligand: a versatile computerised approach for characterisation of ligand binding systems. Anal Biochem 1980; 107: 220. Feldman HA. Mathematical theory of complex ligand binding systems at equilibrium: some methods for parameter fitting. Anal Biochem 1992: 48, 317. De Lean A, Munson P J and Rodbard D. Simultaneous analysis of families of sigmoidal curves: application to bioassay, radioligand assay, and physiological dose-response curves. Am J Physiol 1978: 235 (2), E97-E102.
The results obtained in the above tests for 5-HT1A binding and 5-HT and NA uptake and muscarinic binding for the final products of Examples 1-39 hereinafter are given in Table 1 below. Kis are in nM. % Figures are for % displacement at 10^−6 M for a single determination.
With `CSC1=C(c2ccc3sccc3c2)N2CCN=C2S1` [Example 30, 3-(benzo[b]thiophen-5-yl)-2-(methylthio)-5,6-dihydroimidazo[2,1-b]thiazole], the inhibition at 1 µM was 66%.

Still in this experiment, the particulars now being: [3H]8-OH-DPAT 1 nM, rat hippocampal membranes; fit to data from three experiments.
On to `CC(C)C1=C(c2ccc3sccc3c2)N2CCN=C2S1` [Example 29, 3-(benzo[b]thiophen-5-yl)-2-(1-methylethyl)-5,6-dihydroimidazo[2,1-b]-thiazole], for which the Ki is 83 nM. As for `CCC1=C(c2ccc3sccc3c2)N2CCN=C2S1.O=C(O)/C=C/C(=O)O` [Example 31, 3-(benzo[b]thiophen-5-yl)-2-ethyl-5,6-dihydroimidazo[2,1-b]thiazole fumarate], the Ki is 102 nM. As for `CSC1=C(c2cccc3sccc23)N2CCN=C2S1.O=C(O)/C=C/C(=O)O` [Example 32, 3-(benzo[b]thiophen-4-yl)-2-(methylthio)-5,6-dihydroimidazo[2,1-b]thiazole fumarate], affinity was put at a Ki of 93 nM. `Br.c1cc(C2=C(C3CC3)SC3=NCCN32)c2ccsc2c1` [Example 34, 3-(benzo[b]thiophen-4-yl)-2-cyclopropyl-5,6-dihydroimidazo[2,1-b]thiazole hydrobromide] had a Ki of 45 nM. The same measure, in the same setting: the result for `CC(C)C1=C(c2cccc3sccc23)N2CCN=C2S1.O=C(O)/C=C/C(=O)O` [Example 35, 3-(benzo[b]thiophen-4-yl)-2-(1-methylethyl)-5,6-dihydroimidazo[2,1-b]thiazole fumarate] reads 151 nM; that for `Br.C=CCC1=C(c2cccc3sccc23)N2CCN=C2S1` [Example 36, 2-allyl-3-(benzo[b]thiophen-4-yl)-5,6-dihydroimidazo[2,1-b]thiazole hydrobromide], 40 nM. For the compound `Br.CC1=C(c2ccc3ccsc3c2)N2CCN=C2S1` [Example 37, 3-(benzo[b]thiophen-6-yl)-2-methyl-5,6-dihydroimidazo[2,1-b]thiazole hydrobromide], the affinity corresponds to a Ki of 2.1 nM. Compound `Br.CC1=C(c2ccc(F)c3sccc23)N2CCN=C2S1` [Example 38, 3-(7-fluorobenzo[b]thiophen-4-yl)-2-methyl-5,6-dihydroimidazo[2,1-b]thiazole hydrobromide] registered a Ki of 29 nM.

Still in this experiment, the particulars now being: read-out: 5-HT1A % displacement at 10^−6 M.
`CC1=C(c2cccc3sc(C)cc23)N2CCN=C2S1.Cl` [Example 33, 2-methyl-3-(2-methylbenzo[b]thiophen-4-yl)-5,6-dihydroimidazo[2,1-b]thiazole hydrochloride]: the inhibition at 1 µM worked out at 99%.

Regarding `C=CC1=C(c2cccc3sccc23)N2CCN=C2S1.Cl` [Example 39, 3-(benzo[b]thiophen-4-yl)-2-vinyl-5,6-dihydroimidazo[2,1-b]thiazole hydrochloride], the inhibition at 1 µM stood at 85%.

Usually Ki stands for the equilibrium dissociation constant of an inhibitor or competing ligand from its target.
